Data taken from publication PMC8079033, “Design, synthesis, anticancer evaluation, and molecular modelling studies of novel tolmetin derivatives as potential VEGFR-2 inhibitors and apoptosis inducers” (Journal of Enzyme Inhibition and Medicinal Chemistry, 2021).

Experiments:
A498 = experiment: NCI 60-cell line one-dose antiproliferative screen (SRB); assay type: cell-based; settings: Homo sapiens, read-out: growth inhibition % (GI%)
Method: (§1) Anticancer activity screening of the newly synthesised compounds was measured in vitro utilising 60 different human tumour cell lines provided by US National Cancer Institute according to previously reported standard procedure[41–43] as follows: Cells are inoculated into 96-well microtiter plates in 100 ml. After cell inoculation, the microtiter plates are incubated at 37 °C, 5% CO2, 95% air, and 100% relative humidity for 24 h prior to addition of experimental compounds. After 24 h, two plates of each cell line are fixed in situ with TCA, to represent a measurement of the cell population for each cell line at the time of compound addition (Tz). Experimental compounds are solubilised in dimethyl sulfoxide at 400-fold the desired final maximum test concentration and stored frozen prior to use. At the time of compound addition, an aliquot of frozen concentrate is thawed and diluted to twice the desired final maximum test concentration with a complete medium containing […] gentamicin. Aliquots of […] of the compounds dilutions are added to the appropriate microtiter wells already containing 100 ml of medium, resulting in the required final compound concentration. Following compound addition, the plates are incubated for an additional 48 h at 37 °C, 5% CO2, 95% air, and 100% relative humidity. For adherent cells, the assay is terminated by the addition of cold trichloroacetic acid (TCA). Cells are fixed in situ by the gentle addition of 50 ml of cold 50% (w/v) TCA (final concentration, 10% TCA) and incubated for […] at 4 °C. The supernatant is discarded, and the plates are washed five times with tap water and air-dried. Sulforhodamine B (SRB) solution (100 ml) at 0.4% (w/v) in 1% acetic acid is added to each well, and plates are incubated for 10 min at room temperature. After staining, the unbound dye is removed by washing five times with 1% acetic acid and the plates are air-dried. The bound stain is subsequently solubilised with a 10 mM trizma base, and the absorbance is read on an automated plate reader at a wavelength of 515 nm. For suspension cells, the methodology is the same except that the assay is terminated by fixing settled cells at the bottom of the wells by gently adding 50 ml of 80% TCA (final concentration, 16% TCA). Using the absorbance measurements [time zero, (Tz), control growth, (C), and test growth in the presence of compound (Ti)], the percentage growth is calculated for each compound. The One-dose data are reported as a mean graph of the percent growth of treated cells. The reported number is growth relative to the no-compound control, and relative to the time zero number of cells. This allows the detection of both growth inhibition and lethality.
(§2) Fifteen newly synthesised compounds were tested for their in vitro antiproliferative activity by the National Cancer Institute (NCI), Maryland, USA[50], under the Developmental Therapeutic Program (DTP)[41]^,[43]^,[51]^,[52]. The tested compounds were evaluated at a concentration of 10 µM on a panel of 60 tumour cell lines representing leukaemia and non-small cell lung, colon, CNS, melanoma, ovarian, renal, prostate, and breast cancers. The antiproliferative activity was presented by the NCI as percent growth of the treated cells and is presented in Table 1 as growth inhibition percentage (GI%) achieved by the tested compounds.

A549/ATCC = experiment: as above; assay type: cell-based; settings: Homo sapiens, read-out: growth inhibition % (GI%)
Method: as §1, §2

ACHN = experiment: as above; assay type: cell-based; settings: Homo sapiens, read-out: growth inhibition % (GI%)
Method: as §1, §2

BT-5 = experiment: as above; assay type: cell-based; settings: Homo sapiens, read-out: growth inhibition % (GI%)
Method: as §1, §2

CAKI-1 = experiment: as above; assay type: cell-based; settings: Homo sapiens, read-out: growth inhibition % (GI%)
Method: as §1, §2

CCRF-CEM = experiment: as above; assay type: cell-based; settings: Homo sapiens, read-out: growth inhibition % (GI%)
Method: as §1, §2

EKVX = experiment: as above; assay type: cell-based; settings: Homo sapiens, read-out: growth inhibition % (GI%)
Method: as §1, §2

HCT-116 = experiment: as above; assay type: cell-based; settings: Homo sapiens, read-out: growth inhibition % (GI%)
Method: as §1, §2

HCT-15 = experiment: as above; assay type: cell-based; settings: Homo sapiens, read-out: growth inhibition % (GI%)
Method: as §1, §2

HL-60 (TB) = experiment: as above; assay type: cell-based; settings: Homo sapiens, read-out: growth inhibition % (GI%)
Method: as §1, §2

HOP-62 = experiment: as above; assay type: cell-based; settings: Homo sapiens, read-out: growth inhibition % (GI%)
Method: as §1, §2

HS 578 T = experiment: as above; assay type: cell-based; settings: Homo sapiens, read-out: growth inhibition % (GI%)
Method: as §1, §2

IGROV1 = experiment: as above; assay type: cell-based; settings: Homo sapiens, IGROV-1, read-out: growth inhibition % (GI%)
Method: as §1, §2

K-562 = experiment: as above; assay type: cell-based; settings: Homo sapiens, K562, read-out: growth inhibition % (GI%)
Method: as §1, §2

KM12 = experiment: as above; assay type: cell-based; settings: Homo sapiens, read-out: growth inhibition % (GI%)
Method: as §1, §2

LOX IMVI = experiment: as above; assay type: cell-based; settings: Homo sapiens, read-out: growth inhibition % (GI%)
Method: as §1, §2

M14 = experiment: as above; assay type: cell-based; settings: Homo sapiens, read-out: growth inhibition % (GI%)
Method: as §1, §2

MCF7 = experiment: as above; assay type: cell-based; settings: Homo sapiens, read-out: growth inhibition % (GI%)
Method: as §1, §2

MDA-MB-231/ATCC = experiment: as above; assay type: cell-based; settings: Homo sapiens, read-out: growth inhibition % (GI%)
Method: as §1, §2

MDA-MB-435 = experiment: as above; assay type: cell-based; settings: Homo sapiens, read-out: growth inhibition % (GI%)
Method: as §1, §2

MOLT-4 = experiment: as above; assay type: cell-based; settings: Homo sapiens, read-out: growth inhibition % (GI%)
Method: as §1, §2

NCI-H226 = experiment: as above; assay type: cell-based; settings: Homo sapiens, read-out: growth inhibition % (GI%)
Method: as §1, §2

NCI-H23 = experiment: as above; assay type: cell-based; settings: Homo sapiens, read-out: growth inhibition % (GI%)
Method: as §1, §2

NCI-H322M = experiment: as above; assay type: cell-based; settings: Homo sapiens, read-out: growth inhibition % (GI%)
Method: as §1, §2

NCI-H522 = experiment: as above; assay type: cell-based; settings: Homo sapiens, read-out: growth inhibition % (GI%)
Method: as §1, §2

NCI/ADR-RES = experiment: as above; assay type: cell-based; settings: Homo sapiens, read-out: growth inhibition % (GI%)
Method: as §1, §2

OVCAR-8 = experiment: as above; assay type: cell-based; settings: Homo sapiens, read-out: growth inhibition % (GI%)
Method: as §1, §2

PC-3 = experiment: as above; assay type: cell-based; settings: Homo sapiens, read-out: growth inhibition % (GI%)
Method: as §1, §2

SF-268 = experiment: as above; assay type: cell-based; settings: Homo sapiens, read-out: growth inhibition % (GI%)
Method: as §1, §2

SK-MEL-28 = experiment: as above; assay type: cell-based; settings: Homo sapiens, read-out: growth inhibition % (GI%)
Method: as §1, §2

SK-MEL-2 = experiment: as above; assay type: cell-based; settings: Homo sapiens, read-out: growth inhibition % (GI%)
Method: as §1, §2

SK-MEL-5 = experiment: as above; assay type: cell-based; settings: Homo sapiens, read-out: growth inhibition % (GI%)
Method: as §1, §2

SK-OV-3 = experiment: as above; assay type: cell-based; settings: Homo sapiens, read-out: growth inhibition % (GI%)
Method: as §1, §2

SN 12 C = experiment: as above; assay type: cell-based; settings: Homo sapiens, SN12C, read-out: growth inhibition % (GI%)
Method: as §1, §2

SNB-19 = experiment: as above; assay type: cell-based; settings: Homo sapiens, read-out: growth inhibition % (GI%)
Method: as §1, §2

SNB-75 = experiment: as above; assay type: cell-based; settings: Homo sapiens, read-out: growth inhibition % (GI%)
Method: as §1, §2

SW-620 = experiment: as above; assay type: cell-based; settings: Homo sapiens, read-out: growth inhibition % (GI%)
Method: as §1, §2

T-47D = experiment: as above; assay type: cell-based; settings: Homo sapiens, T47D, read-out: growth inhibition % (GI%)
Method: as §1, §2

U251 = experiment: as above; assay type: cell-based; settings: Homo sapiens, U-251, read-out: growth inhibition % (GI%)
Method: as §1, §2

UO-31 = experiment: as above; assay type: cell-based; settings: Homo sapiens, read-out: growth inhibition % (GI%)
Method: as §1, §2

SMILES: Cc1ccc(C(=O)c2ccc(CC(=O)NN3C(=O)c4ccccc4C3=O)n2C)cc1 [Compound 7c, N-(1,3-Dioxoisoindolin-2-yl)-2–(1-methyl-5–(4-methylbenzoyl)-1H-pyrrol-2-yl) acetamide]
- inhibition at 10 µM (A498): 13.3%
- inhibition at 10 µM (A549/ATCC): 14%
- inhibition at 10 µM (ACHN): < 10%
- inhibition at 10 µM (BT-5): < 10%
- inhibition at 10 µM (CAKI-1): < 10%
- inhibition at 10 µM (CCRF-CEM): < 10%
- inhibition at 10 µM (EKVX): 24.5%
- inhibition at 10 µM (HCT-116): < 10%
- inhibition at 10 µM (HCT-15): < 10%
- inhibition at 10 µM (HL-60 (TB)): < 10%
- inhibition at 10 µM (HOP-62): < 10%
- inhibition at 10 µM (HS 578 T): < 10%
- inhibition at 10 µM (IGROV1): 14.8%
- inhibition at 10 µM (K-562): < 10%
- inhibition at 10 µM (KM12): < 10%
- inhibition at 10 µM (LOX IMVI): 10.2%
- inhibition at 10 µM (M14): < 10%
- inhibition at 10 µM (MCF7): < 10%
- inhibition at 10 µM (MDA-MB-231/ATCC): < 10%
- inhibition at 10 µM (MDA-MB-435): < 10%
- inhibition at 10 µM (MOLT-4): 10.6%
- inhibition at 10 µM (NCI-H226): < 10%
- inhibition at 10 µM (NCI-H23): < 10%
- inhibition at 10 µM (NCI-H322M): < 10%
- inhibition at 10 µM (NCI-H522): 14.4%
- inhibition at 10 µM (NCI/ADR-RES): < 10%
- inhibition at 10 µM (OVCAR-8): < 10%
- inhibition at 10 µM (PC-3): < 10%
- inhibition at 10 µM (SF-268): < 10%
- inhibition at 10 µM (SK-MEL-28): < 10%
- inhibition at 10 µM (SK-MEL-2): < 10%
- inhibition at 10 µM (SK-MEL-5): < 10%
- inhibition at 10 µM (SK-OV-3): < 10%
- inhibition at 10 µM (SN 12 C): < 10%
- inhibition at 10 µM (SNB-19): < 10%
- inhibition at 10 µM (SNB-75): 17.9%
- inhibition at 10 µM (SW-620): < 10%
- inhibition at 10 µM (T-47D): 25.5%
- inhibition at 10 µM (U251): < 10%
- inhibition at 10 µM (UO-31): 27.3%
- melting point: > 300 °C
